Test results reported in patent US20240189239A1, “PROCESS FOR CONTINUOUS HOT MELT GRANULATION OF LOW SOLUBLE PHARMACEUTICALS” (Merck Patent GmbH, priority 2021, published 2024).

Test: Dissolution measurement of granules of Example 1 (paddle, 900 ml SGFsp, 37° C.)
Type: physicochemical
Conditions: paddle 75 rpm, 50 mg ITZ, up to 120 min
Method: For measuring the dissolution, granules as obtained in Example 1 were used directly without further processing. 3 samples per temperature setup were used. 500 mg 10% ITZ granulate were weighted (Mettler Toledo Delta Range XP105) which equals 50 mg ITZ API.
Dissolution was performed using a Sotax AT7 smart with an online Photometer Specord 200+ from Analytik Jena. As a medium 900 ml SGF.sp (20 g NaCl, 800 ml 0.1 M HCl ad 10.0 L VE-water) at 37° C.±0.5 was used. The following settings were used: Rotation speed 75 rpm; Paddle method; Pre-filter: Glass Mircofiber Filters GE Whatmann GF/D Diameter 25 mm, 5 mm HELMA flow-through cuvette, Sampling Points: 5,20,35,50,60,120 Min.
The granulation with polyvinyl alcohol at a temperature between 140° C. to 170° C. increases the solubility of the compound (lines 2 to 6). At 175° C. the solubility suddenly increases. With higher temperature solubility is further enhanced. An immediate release can be observed for temperatures of 180° C. to 190° C. (lines 8 to 10). With a further temperature increase above the melting temperature of PCA (line 11; 200° C.) the drug release rates are delayed.

## CCC(C)n1ncn(-c2ccc(N3CCN(c4ccc(OCC5COC(Cn6cncn6)(c6ccc(Cl)cc6Cl)O5)cc4)CC3)cc2)c1=O (stereo not shown) [crystalline itraconazole, itraconazole]
  solubility / drug release of itraconazole in the release medium (FIG. 3): very low solubility
